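Here, GI50 denotes the concentration required for 50% inhibition of growth. At the TGI there is no net growth.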
How the values were obtained:
Assay in all cases: DTP human tumour cell line panel, 384-well format
786-0 renal = test system: 786-0 renal
A498 renal = test system: A498 renal
A549 NSCLC = test system: A549 NSCLC
ACHN renal = test system: ACHN renal
BT-549 breast = test system: BT-549 breast
CAKI-1 renal = test system: CAKI-1 renal
CCRF-CEM leukemia = test system: CCRF-CEM leukemia
COLO 205 colon = test system: COLO 205 colon
DU-145 prostate = test system: DU-145 prostate
EKVX NSCLC = test system: EKVX NSCLC
HCC-2998 colon = test system: HCC-2998 colon
HCT-116 colon = test system: HCT-116 colon
HCT-15 colon = test system: HCT-15 colon
HOP-62 NSCLC = test system: HOP-62 NSCLC
HOP-92 NSCLC = test system: HOP-92 NSCLC
HS 578T breast = test system: HS 578T breast
HT29 colon = test system: HT29 colon
IGROV1 ovarian = test system: IGROV1 ovarian
K-562 leukemia = test system: K-562 leukemia
KM12 colon = test system: KM12 colon
LOX IMVI melanoma = test system: LOX IMVI melanoma
M14 melanoma = test system: M14 melanoma
MALME-3M melanoma = test system: MALME-3M melanoma
MCF7 breast = test system: MCF7 breast
MDA-MB-231 breast = test system: MDA-MB-231 breast
MDA-MB-435 melanoma = test system: MDA-MB-435 melanoma
MDA-MB-468 breast = test system: MDA-MB-468 breast
MOLT-4 leukemia = test system: MOLT-4 leukemia
NCI-H226 lung = test system: NCI-H226 lung
NCI-H23 lung = test system: NCI-H23 lung
NCI-H322M lung = test system: NCI-H322M lung
NCI-H460 NSCLC = test system: NCI-H460 NSCLC
NCI-H522 lung = test system: NCI-H522 lung
NCI/ADR-RES ovarian = test system: NCI/ADR-RES ovarian
OVCAR-3 ovarian = test system: OVCAR-3 ovarian
OVCAR-4 ovarian = test system: OVCAR-4 ovarian
OVCAR-8 ovarian = test system: OVCAR-8 ovarian
PC-3 prostate = test system: PC-3 prostate
RXF 393 renal = test system: RXF 393 renal
SF-268 CNS = test system: SF-268 CNS
SF-295 CNS = test system: SF-295 CNS
SF-539 CNS = test system: SF-539 CNS
SK-MEL-28 melanoma = test system: SK-MEL-28 melanoma
SK-MEL-5 melanoma = test system: SK-MEL-5 melanoma
SK-OV-3 ovarian = test system: SK-OV-3 ovarian
SN12C renal = test system: SN12C renal
SNB-75 CNS = test system: SNB-75 CNS
SW-620 colon = test system: SW-620 colon
T-47D breast = test system: T-47D breast
TK-10 renal = test system: TK-10 renal
U251 glioblastoma = test system: U251 glioblastoma
UACC-257 melanoma = test system: UACC-257 melanoma
UACC-62 melanoma = test system: UACC-62 melanoma
UO-31 renal = test system: UO-31 renal

**Q.** What does the source list for `Cc1cc(C(=O)NOCCO)c(Nc2ccc(I)cc2F)n(C)c1=O`?
**A.** GI50 ([…]-0 renal): 0.0446 µM; TGI (786-0 renal): > 100 µM; GI50 (A498 renal): 35.7 µM; TGI (A498 renal): > 100 µM; GI50 (A549 NSCLC): 0.0118 µM; TGI (A549 NSCLC): 74.2 µM; GI50 (ACHN renal): 22.2 µM; TGI (ACHN renal): > 100 µM; GI50 (BT-549 breast): 20.4 µM; TGI (BT-549 breast): > 100 µM; GI50 (CAKI-1 renal): 0.012 µM; TGI (CAKI-1 renal): > 100 µM; GI50 (CCRF-CEM leukemia): > 100 µM; TGI (CCRF-CEM leukemia): > 100 µM; GI50 (COLO 205 colon): < 0.01 µM; TGI (COLO 205 colon): 0.0132 µM; GI50 (DU-145 prostate): 4.72 µM; TGI (DU-145 prostate): > 100 µM; GI50 (EKVX NSCLC): 0.0243 µM; TGI (EKVX NSCLC): > 100 µM; GI50 (HCC-2998 colon): < 0.01 µM; TGI (HCC-2998 colon): < 0.01 µM; GI50 (HCT-116 colon): < 0.01 µM; TGI (HCT-116 colon): 0.121 µM; GI50 (HCT-15 colon): 0.145 µM; TGI (HCT-15 colon): > 100 µM; GI50 (HOP-62 NSCLC): < 0.01 µM; TGI (HOP-62 NSCLC): > 100 µM; GI50 (HOP-92 NSCLC): 0.0157 µM; TGI (HOP-92 NSCLC): 0.125 µM; GI50 (HS 578T breast): 0.0264 µM; TGI (HS 578T breast): > 100 µM; GI50 (HT29 colon): < 0.01 µM; TGI (HT29 colon): > 100 µM; GI50 (IGROV1 ovarian): < 0.01 µM; TGI (IGROV1 ovarian): > 100 µM; GI50 (K-562 leukemia): 0.0114 µM; TGI (K-562 leukemia): > 100 µM; GI50 (KM12 colon): < 0.01 µM; TGI (KM12 colon): > 100 µM; GI50 (LOX IMVI melanoma): < 0.01 µM; TGI (LOX IMVI melanoma): 0.116 µM; GI50 (M14 melanoma): < 0.01 µM; TGI (M14 melanoma): < 0.01 µM; GI50 (MALME-3M melanoma): < 0.01 µM; TGI (MALME-3M melanoma): < 0.01 µM; GI50 (MCF7 breast): > 100 µM; TGI (MCF7 breast): > 100 µM; GI50 (MDA-MB-231 breast): < 0.01 µM; TGI (MDA-MB-231 breast): 0.138 µM; GI50 (MDA-MB-435 melanoma): < 0.01 µM; TGI (MDA-MB-435 melanoma): > 100 µM; GI50 (MDA-MB-468 breast): 49.7 µM; TGI (MDA-MB-468 breast): > 100 µM; GI50 (MOLT-4 leukemia): > 100 µM; TGI (MOLT-4 leukemia): > 100 µM; GI50 (NCI-H226 lung): 0.0389 µM; TGI (NCI-H226 lung): 94.4 µM; GI50 (NCI-H23 lung): < 0.01 µM; TGI (NCI-H23 lung): 0.0435 µM; GI50 (NCI-H322M lung): < 0.01 µM; TGI (NCI-H322M lung): > 100 µM; GI50 (NCI-H460 NSCLC): < 0.01 µM; TGI (NCI-H460 NSCLC): > 100 µM; GI50 (NCI-H522 lung): 33.2 µM; TGI (NCI-H522 lung): > 100 µM; GI50 (NCI/ADR-RES ovarian): > 100 µM; TGI (NCI/ADR-RES ovarian): > 100 µM; GI50 (OVCAR-3 ovarian): 62.9 µM; TGI (OVCAR-3 ovarian): > 100 µM; GI50 (OVCAR-4 ovarian): > 100 µM; TGI (OVCAR-4 ovarian): > 100 µM; GI50 (OVCAR-8 ovarian): 32 µM; TGI (OVCAR-8 ovarian): > 100 µM; GI50 (PC-3 prostate): > 100 µM; TGI (PC-3 prostate): > 100 µM; GI50 (RXF 393 renal): 0.0582 µM; TGI (RXF 393 renal): > 100 µM; GI50 (SF-268 CNS): > 100 µM; TGI (SF-268 CNS): > 100 µM; GI50 (SF-295 CNS): 65.7 µM; TGI (SF-295 CNS): > 100 µM; GI50 (SF-539 CNS): 0.052 µM; TGI (SF-539 CNS): > 100 µM; GI50 (SK-MEL-28 melanoma): < 0.01 µM; TGI (SK-MEL-28 melanoma): < 0.01 µM; GI50 (SK-MEL-5 melanoma): < 0.01 µM; TGI (SK-MEL-5 melanoma): > 100 µM; GI50 (SK-OV-3 ovarian): > 100 µM; TGI (SK-OV-3 ovarian): > 100 µM; GI50 (SN12C renal): < 0.01 µM; TGI (SN12C renal): 48.7 µM; GI50 (SNB-75 CNS): 0.18 µM; TGI (SNB-75 CNS): > 100 µM; GI50 (SW-620 colon): < 0.01 µM; TGI (SW-620 colon): > 100 µM; GI50 (T-47D breast): > 100 µM; TGI (T-47D breast): > 100 µM; GI50 (TK-10 renal): 0.0521 µM; TGI (TK-10 renal): > 100 µM; GI50 (U251 glioblastoma): 0.0391 µM; TGI (U251 glioblastoma): > 100 µM; GI50 (UACC-257 melanoma): < 0.01 µM; TGI (UACC-257 melanoma): < 0.01 µM; GI50 (UACC-62 melanoma): < 0.01 µM; TGI (UACC-62 melanoma): < 0.01 µM; GI50 (UO-31 renal): 0.0404 µM; TGI (UO-31 renal): > 100 µM
